Columns and labels:
IRAP [1] = target: T1, IRAP (Homo sapiens, UniProt Q9UIQ6); test: Thermal shift (TSA) IRAP assay; type: binding; details: screening hits at 30 µM, 1% DMSO
T1 construct: The screen was performed with the soluble truncated IRAP enzyme; made in house
Source text: The Thermal shift assay (TSA) is a biophysical technique measuring protein thermal stability. The assay relies on a fluorescent dye that is quenched in an aqueous environment but fluoresces when de-solvated in non-polar environments, such as the hydrophobic pockets of proteins. The target protein is mixed with the dye and heated gradually until it becomes completely denatured; as it unfolds or melts, the dye binds to newly exposed hydrophobic regions of the protein, resulting in a significant increase in fluorescence emission detected by a PCR system. The melting temperature (Tm) is calculated from the protein melt curve, and changes in Tm (known as ΔTm) are correlated with changes in protein stability and ligand binding. […] For the TSA assay, vehicle (DMSO) or compound was dispensed into MicroAmp Endura optical qPCR plates at the desired volume using an Echo acoustic liquid handler. […] The plates were then centrifuged for 10 s at 1000 rpm and sealed with Clear PCR-compatible plate seals.

[2] = set-up: method as in ELF screening history; details: ref ELF screening history, cited from earlier work; for Enzyme Active: number of ELF enzyme screens in which the compound was active; for Targets active: number of ELF screens in which the compound was active; for Enzyme Active %: share of ELF enzyme targets screened; for Targets Active %: share of all ELF targets screened
IRAP [3] = target: T1, IRAP; test: Deselection fluorescence IRAP assay with 10 µM zinc; type: biochemical; details: 10 µM ZnSO4 in assay buffer; for IC50: read-out: Fluorescence + Zn pIC50 (converted)
Method: To prepare the assay buffer (50 mM Tris-HCl pH 7.4, 150 mM NaCl, 0.1 mM PMSF, 0.05% BSA) of the primary and orthogonal assays, 1 M Tris-HCl was prepared by dissolving 60.57 g Trizma-base (Mw 121.14 g/mol) (Sigma 93362-250G) in 500 mL MQ water, and the pH was adjusted to 7.4 using 4 M HCl. The solution was filtered with a 0.45 μm filter and stored at room temperature (RT). Then, 2 M NaCl stock was prepared by dissolving 29.22 g NaCl (Mw 58.44 g/mol) (Sigma S7653-250G) in 250 mL MQ water. The solution was filtered with a 0.45 μm filter and stored at RT. Next, 100 mM Phenylmethanesulfonylfluoride (PMSF) stock was prepared by dissolving 1 g PMSF (Mw 174.19 g/mol) (Sigma 78830-1G) in 57.4 mL isopropanol (Sigma I9516-500ML) and stored at 4 °C. A 10% Bovine Serum Albumin (BSA) stock solution was prepared by dissolving 2 g BSA (Mw 66.5 kDa) (Sigma A7030-50G), which was dissolved in 20 mL MQ water. The solution was filtered with a 0.45 μm filter, aliquoted, and stored at −20 °C. For the deselection assay buffer (50 mM Tris-HCl pH 7.4, 150 mM NaCl, 0.1 mM PMSF, 0.05% BSA, 10 μM ZnSO4), 1 mM ZnSO4 solution was prepared by dissolving 28.8 mg ZnSO4 (Mw 287.56 g/mol) (Sigma Z0251-100G) in 100 mL MQ water. The solution was filtered with a 0.45 μm filter and stored at RT. For the TSA assay buffer (50 mM Tris HCL, 150 mM NaCl, pH 7.4), stocks of 1 M Tris HCL and 2 M NaCl were prepared as described above.

IRAP [4] = target: T1, IRAP; test: Orthogonal absorbance IRAP assay (L-Leucine para-nitroanilide cleavage); type: biochemical; details: 1 mM L-Leucine p-Nitroanilide, 120 min RT; for IC50: read-out: Absorbance pIC50 (converted)
Source text: The primary biochemical assay was developed to measure the enzymatic activity of IRAP. […] To establish an orthogonal assay, an alternative L-Leucine para-nitroanilide substrate was used, which IRAP turns over to L-Leucine and para-nitroaniline and is measurable by absorbance at 405 nm (Supplementary Figure S2B).
To ensure biochemically sound, optimal, robust, and affordable assay conditions for large-scale screening, several factors need to be considered. These include the final concentration of substrates, based on the determined substrate Km value; the assay kinetics and reaction linearity; achieving a minimal, rate limiting protein concentration; identifying optimal buffer additives and concentrations; the choice of assay plate type; the final assay volume per well; the stability of reagents; the magnitude and variance of the signal; and the potency and rank order of reference compounds. For both primary fluorescence and orthogonal absorbance assays, non-binding 1536-well assay plates were used, and 0.05% BSA was included in the assay buffer to minimize the issues associated with protein sticking to plastics. The substrate Km values were determined in two separate experiments using two different batches of IRAP protein. For this, the IRAP progress curve was monitored every 5 min for 2 h using an Envision multimode plate reader (PerkinElmer, Waltham, MA, USA). […] To evaluate if using substrate concentrations close to the determined Km values results in sufficient dynamic range within the linear range of the enzymatic reaction, Z′ and S/B were calculated for multiple time points up to 2.5 h in the presence and absence of reference compounds in both assays. The primary fluorescence assay reached an optimal Z′-value after 1 h when using 37.5 μM substrate (Supplementary Figure S5). For the absorbance, 2 h was required for the enzyme reaction time; however, using ~0.4 mM substrate was associated with increased assay variation and a poor Z′ (Supplementary Figure S6).
The orthogonal assay was performed in a black non-binding 1536-well plate (Corning 3728) and sealed with universal lids (Corning 3098). First, 20 nL of test compounds (4 mM) or 100% DMSO was dispensed into the 1536-well assay plates using an Echo acoustic liquid handler (Beckman Coulter). Then, 4 μL of protein working solution (5 × 10^−4 mg/mL) was dispensed to the negative control (min effect) and compound wells (final well concentration 2.5 × 10^−4 mg/mL) using the Certus Flex liquid dispenser (Fritz Gyger AG) and 4 μL assay buffer to the positive control wells (max effect) using the FLEXdrop (PerkinElmer). Next, 4 μL of 2 mM substrate working solution was dispensed into all wells using the FLEXdrop (final well concentration 1 mM). The assay plates were then centrifuged at 187.5× g for 30 s, incubated in the dark at RT for 120 min, and finally read on an Envision plate reader (PerkinElmer) (absorbance at 405 nm, 10 flashes per second). During the dose–response curve analysis in the orthogonal assay, 80 nL of compound (range 2.00 × 10^−3 M–2.74 × 10^−6 M) or 100% DMSO was dispensed into the assay plates using an Echo acoustic liquid handler (Beckman Coulter) with final well concentration range of 20 μM–27.4 nM compound and 1% DMSO.

IRAP [5] = target: T1, IRAP; test: Primary fluorescence IRAP assay (L-Leucine-7-amido-4-methylcoumarin cleavage); type: biochemical; details: for Fluorescence pIC50 / IC50: 37.5 µM L-Leucine-7-amido-4-methylcoumarin, 60 min RT, dose-response 20 µM-27.4 nM; for LipE: calculated from (pIC50Fluorescence − LogD)
Source text: The primary biochemical assay was developed to measure the enzymatic activity of IRAP.
To ensure biochemically sound, optimal, robust, and affordable assay conditions for large-scale screening, several factors need to be considered. […] For both primary fluorescence and orthogonal absorbance assays, non-binding 1536-well assay plates were used, and 0.05% BSA was included in the assay buffer to minimize the issues associated with protein sticking to plastics. The substrate Km values were determined in two separate experiments using two different batches of IRAP protein. For this, the IRAP progress curve was monitored every 5 min for 2 h using an Envision multimode plate reader (PerkinElmer, Waltham, MA, USA).
First, 10 nL of test compounds (4 mM) or 100% DMSO was dispensed into the 1536-well assay plates using an Echo acoustic liquid handler (Beckman Coulter, Brea, CA, USA). Then, 2 μL of protein working solution (5 × 10^−4 mg/mL) was dispensed to the negative control (min effect) and compound wells (final well concentration 2.5 × 10^−4 mg/mL) using a Certus Flex liquid dispenser (Fritz Gyger AG, Thun, Switzerland) and 2 μL assay buffer to the positive control wells (max effect) using a FLEXdrop (PerkinElmer, Waltham, MA, USA).
Figure S9. Reference compounds in Fluorescence IRAP assay with different end volumes in 1536-well format.
mg/ml) and 2 or 4 µL L -Leucine-7-amido-4-methylcoumarin (f.a.c.
Plates were measured on the Envision every 10 minutes for 140 minutes (data
shown up to 2 hours). %Effect was calculated using no protein as MAX effect (assay buffer was added instead of IRAP).

T1 sequence (Q9UIQ6 155-1025 limits assumed): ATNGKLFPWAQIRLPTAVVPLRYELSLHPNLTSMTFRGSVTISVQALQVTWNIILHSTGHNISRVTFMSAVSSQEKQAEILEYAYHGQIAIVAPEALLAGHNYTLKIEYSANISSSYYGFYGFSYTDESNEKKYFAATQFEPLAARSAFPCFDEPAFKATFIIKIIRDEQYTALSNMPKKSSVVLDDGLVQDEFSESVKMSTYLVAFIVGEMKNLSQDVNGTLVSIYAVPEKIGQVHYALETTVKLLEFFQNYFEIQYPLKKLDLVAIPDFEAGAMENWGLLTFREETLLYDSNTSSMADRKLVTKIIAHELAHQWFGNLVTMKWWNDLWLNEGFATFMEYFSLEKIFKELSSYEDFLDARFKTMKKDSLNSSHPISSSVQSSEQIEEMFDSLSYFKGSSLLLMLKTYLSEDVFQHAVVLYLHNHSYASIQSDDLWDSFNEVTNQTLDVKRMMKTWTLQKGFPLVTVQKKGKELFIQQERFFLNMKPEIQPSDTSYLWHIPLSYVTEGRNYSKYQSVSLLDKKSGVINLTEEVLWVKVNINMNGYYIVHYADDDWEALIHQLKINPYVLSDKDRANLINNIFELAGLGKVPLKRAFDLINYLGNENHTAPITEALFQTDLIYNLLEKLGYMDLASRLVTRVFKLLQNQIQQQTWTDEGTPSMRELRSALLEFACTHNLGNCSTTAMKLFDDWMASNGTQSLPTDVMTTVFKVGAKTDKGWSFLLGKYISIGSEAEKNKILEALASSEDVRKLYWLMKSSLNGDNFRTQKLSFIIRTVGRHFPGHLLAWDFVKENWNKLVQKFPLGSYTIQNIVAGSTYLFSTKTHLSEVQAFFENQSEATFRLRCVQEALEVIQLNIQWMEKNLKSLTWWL

Structure (SMILES)	TSA (∆°C), thermal shift of IRAP (IRAP [1]) [°C]	Enzyme Active [2]	Targets active [2]	Enzyme Active % [2] [%]	Targets Active % [2] [%]	Fluorescence + Zn pIC50 (IRAP [3])	Absorbance pIC50 (IRAP [4])	Fluorescence pIC50 (IRAP [5])	IC50 (IRAP [5]; read-out: Fluorescence IC50) [nM]	LipE (IRAP [5])	ΔTm at 30 µM (IRAP [1]) [°C]	IC50 (IRAP [3]) [nM]	IC50 (IRAP [4]) [nM]	IC50 (IRAP [5]; read-out: Fluorescence pIC50 (converted)) [nM]
COCCN1CCc2cnc(NCc3ccc(S(N)(=O)=O)cc3)cc21 [QHL47]	0.3	4	6	4.7	4.2	4.99	5.51	4.99	10200	3.57	–	–	–	–
O=C1CN(c2cc(=O)n3ccn(Cc4ccc(F)cc4Cl)c3n2)CCN1 [QHL40]	–	4	6	4.3	4.2	–	–	–	4680	4.38	0.3	5250	> 20000	–
c1ccn(CCCSc2nnc3ccc(N4CCCC4)nn23)c1 [QHL50]	0.44	7	11	8.1	7.6	4.7	5.36	4.74	18200	2.06	–	–	–	–
CC(C)C(CS(=O)(=O)N(Cc1cc2ccccc2o1)C(C)C)C(=O)NO (centres unmarked) [QHL3]	–	3	4	3.2	2.7	–	–	–	–	4.08	5.22	389	708	380
COc1cc2c(cc1-c1cnco1)C(=O)N(C)C(C)(C=Cc1ccncc1)N2 (centres unmarked) [QHL33]	0.74	4	5	4.3	3.4	5.42	5.510	5.43	3720	3.82	–	–	–	–
c1scc2c(N3CCCCCC3)nc(N3CCC3)nc12 [QHL44]	0.44	4	6	4.3	4.0	5.18	< 4.70	5.19	6460	1.50	–	–	–	–
Cc1ccc(-c2nc(C3CCCN3C(=O)NCc3ccccc3)n3ccccc23)cc1 (racemic) [QHL36]	0.3	4	6	7.1	5.8	5.31	5.80	5.40	3980	0.29	–	–	–	–
O=C(COCc1ccccc1)N1CCc2n[nH]c(-c3cccs3)c2CC1 [QHL14]	–	3	5	7.3	6.6	–	–	–	2240	2.42	0.15	2340	> 20000	–
O=C(NO)C1(CS(=O)(=O)N2CCC(c3ccc(F)cc3Cl)C2)CCC1 (centres unmarked) [QHL5]	–	3	4	3.3	2.7	–	–	–	1200	3.79	4.29	1120	1950	–
COc1ccc(S(=O)(=O)CCC(CCCc2ccccc2)C(=O)NO)cc1 (centres unmarked) [QHL4]	–	3	5	3.2	3.4	–	–	–	710	2.51	4	676	2000	–
CC(C)n1cc(C(=O)N2CCc3n[nH]c(-c4cccc(F)c4)c3CC2)cn1 [QHL25]	–	2	2	4.8	2.6	–	–	–	3160	2.30	0	3470	> 20000	–

From publication PMC11012289, “The Discovery of New Inhibitors of Insulin-Regulated Aminopeptidase by a High-Throughput Screening of 400,000 Drug-like Compounds” (International Journal of Molecular Sciences, 2024)
